From ChEMBL document CHEMBL1201862, “PubChem BioAssay data set” (2004) come the findings set out here.

Common to all, as to experiment: NCI-60 cell line screen, 48 h
For test [1], the system named is KM-20L2.
In test [2] the test system is SNB-78.
For test [3], the system named is DMS-273.
For test [4], the system named is XF498.
In test [5] the test system is HOP-18.
Test [6] concerns LXFL 529.
In test [7] the test system is M19-MEL.
In test [8] the test system is DLD-1.
Test [9] deals with RXF 631.

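Five concentrations, 48 hours, 96-well plates. GI50 is the concentration that inhibits growth by half.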 Calls of active or inactive are those of the source. Rule as the data show it: active = GI50 up to about 1.1 µM and inactive = higher. Some results are limits rather than exact numbers.

For the compound `C[C@]12CC/C(=N\OC(=O)Nc3ccccc3)C=C1CC[C@@H]1C2CC[C@@]2(C)C1CC[C@@H]2OC(=O)Nc1ccccc1` (stereo partly drawn), the GI50 is > 100 µM (inactive) in test [1]; > 100 µM (inactive) in [2]; > 100 µM (inactive) in test [3]; 13.4 µM (inactive) in test [4]; > 100 µM (inactive) in test [5]; 15.5 µM (inactive) in [6]. Moreover, in [7], the GI50 is 66.4 µM (inactive).

As for `O=C(CC1(O)C(=O)Nc2ccccc21)c1ccccc1O` (stereo not drawn), the GI50 in test [1], in [2], in test [3], in [4], in test [8] and in test [6] was > 100 µM (inactive) throughout. Besides, the GI50 in test [9] and in test [7] was > 100 µM (inactive) in each case.

Regarding `O=C(O)c1ccccc1C(=O)c1ccco1`, the GI50 in test [1], in test [2], in test [3], in test [4], in test [8] and in [5] was > 100 µM (inactive) each time. Also, the GI50 in test [7] is > 100 µM (inactive).

For `CC(C)(C)c1cc2c(OP(c3ccccc3)c3ccccc3)c(c1)Cc1cc(C(C)(C)C)cc(c1OP(c1ccccc1)c1ccccc1)Cc1cc(C(C)(C)C)cc(c1OP(c1ccccc1)c1ccccc1)Cc1cc(C(C)(C)C)cc(c1OP(c1ccccc1)c1ccccc1)C2`, the GI50 in [1], in test [2], in test [3], in test [8], in [5] and in test [6] was > 5 µM (inactive) throughout. The GI50 in test [7] was > 5 µM (inactive).

`CC(C)(C)CC(C)(C)c1cc2c(O)c(c1)Cc1cc(C(C)(C)CC(C)(C)C)cc(c1O)Cc1cc(C(C)(C)CC(C)(C)C)cc(c1O)Cc1cc(C(C)(C)CC(C)(C)C)cc(c1O)Cc1cc(C(C)(C)CC(C)(C)C)cc(c1O)Cc1cc(C(C)(C)CC(C)(C)C)cc(c1O)Cc1cc(C(C)(C)CC(C)(C)C)cc(c1O)Cc1cc(C(C)(C)CC(C)(C)C)cc(c1O)C2`: the GI50 in test [1], in test [2], in [3], in test [4], in test [8] and in test [6] was > 100 µM (inactive) each time. In addition, in [7], the GI50 was > 100 µM (inactive).

For the compound `O=C1c2nc3n(c2C(=O)c2c1nc1n2CCC1)CCC3`, the GI50 in test [1] was 3.61 µM (inactive); in test [2] it was 13.8 µM (inactive); in test [3], 3.3 µM (inactive); in test [4], 6.38 µM (inactive); in test [8], 5.09 µM (inactive); in test [5] it was 14 µM (inactive). Further, the GI50 in test [6] is 9.93 µM (inactive); in test [7] it was 0.184 µM (active).

As for `COc1cc(Nc2nc3cc(C)ccc3nc2-c2ccccc2)cc(OC)c1OC`, the GI50 was 30.5 µM (inactive) in test [1]; 11.8 µM (inactive) in test [3]; 19.7 µM (inactive) in test [4]; 24.3 µM (inactive) in test [5]; 39.7 µM (inactive) in test [6]; 24.2 µM (inactive) in test [7].

For `Cc1cc(N(CCC#N)CCC#N)ccc1/C=N\c1ccc(C(=O)NN2C(=O)/C(=C/c3ccc(N(CCC#N)CCC#N)cc3)N=C2c2cc([N+](=O)[O-])ccc2Cl)cc1`, the GI50 in test [1] was 67.1 µM (inactive); in test [2], > 100 µM (inactive); in test [3], 47.6 µM (inactive); in test [4], 61.9 µM (inactive); in [8] it was 78.9 µM (inactive); in [5] it was 5.4 µM (inactive). The GI50 in test [6] is 71.6 µM (inactive); in test [9], > 100 µM (inactive); in test [7] it was > 100 µM (inactive).

As to `O/N=C1/C(=C/c2ccccc2)CCCC1C(NO)c1ccccc1` (stereo not drawn), the GI50 in [1] was > 100 µM (inactive); in [2], 50.6 µM (inactive); in [3], > 100 µM (inactive); in [4] it was 28.1 µM (inactive); in test [5] it was > 100 µM (inactive); in test [6], 49.1 µM (inactive). The GI50 in test [9] is > 100 µM (inactive); in [7], 68.4 µM (inactive).

For `Cc1nc2c(n1C(C)(C)C)C(=O)c1ccccc1C2=O`, the GI50 is 51.5 µM (inactive) in test [1]; > 100 µM (inactive) in test [2]; 52.8 µM (inactive) in test [3]; 44 µM (inactive) in [4]; 87.3 µM (inactive) in test [8]; 67.9 µM (inactive) in test [6]. Besides, the GI50 in [7] was 24.8 µM (inactive).

With `COC(=O)C12Oc3ccc(-c4ccc5c(c4O)C(=O)C4=CCC(C)C(O)C4(C(=O)OC)O5)c(O)c3C(=O)C1=CCC(C)C2O` (stereo not drawn), the GI50 in test [1] is 1.44 µM (inactive); in test [2] it was 1.95 µM (inactive); in test [3], 1.62 µM (inactive); in test [8] it was 0.798 µM (active); in test [5] it was 2.26 µM (inactive); in [6], 1.19 µM (inactive). Also, the values for the GI50 in test [9] and in test [7] were 2.13 µM (inactive) and 1.48 µM (inactive), respectively.

In the case of `O=C(OCc1ccccc1)N1N=NC2C1C1CC(OCc3ccccc3)(OCc3ccccc3)C2O1` (stereo not drawn), the GI50 in [1], in test [2], in test [3], in test [4], in [8] and in [5] was > 100 µM (inactive) each time. Further, the GI50 in test [6] and in [7] was > 100 µM (inactive) each time.

As to `O=C1c2ccccc2C(=O)c2c1ccc1c3ccccc3n(Cc3ccccc3)c21`, the GI50 in test [4] is > 100 µM (inactive); in test [8] it was > 100 µM (inactive); in test [5] it was 0.0319 µM (active); in test [6], > 100 µM (inactive); in [7], 88.7 µM (inactive).

Consider `C[C@@H](O)CCC(=O)c1ccoc1`, for which the GI50 in test [1], in test [2], in [3], in test [8], in test [5] and in [6] was > 100 µM (inactive) in each case. For the same compound, in test [7], the GI50 was > 100 µM (inactive).

With `O=C(c1cc(=O)c2ccc(O)cc2o1)c1ccc(Cl)cc1Cl`, the GI50 is 10.6 µM (inactive) in test [1]; 31.3 µM (inactive) in test [2]; 3.89 µM (inactive) in test [3]; 26.8 µM (inactive) in test [4]; 17.4 µM (inactive) in test [8]; 29.4 µM (inactive) in test [5]. In addition, the GI50 in [9] is 11.1 µM (inactive); in [7], 13.8 µM (inactive).

On to `CC12OOC(c3ccccc31)c1c2ccc2ccccc12` (stereo not drawn), for which the GI50 was 3.66 µM (inactive) in test [1]; 4.11 µM (inactive) in test [2]; 8.69 µM (inactive) in test [3]; 1.45 µM (inactive) in [8]; 1.86 µM (inactive) in [5]; 2.04 µM (inactive) in test [6]. The results for the GI50 in test [9] and in [7] were 8.04 µM (inactive) and 3.13 µM (inactive), respectively.

Consider `CCOC(=O)C(N)CSC(=O)NC` (stereo not drawn), for which the GI50 in [1] was 171 µM (inactive); in [3] it was 83.6 µM (inactive); in test [4] it was 104 µM (inactive); in test [8], 130 µM (inactive); in test [5], 357 µM (inactive); in [7] it was 64.6 µM (inactive).

On to `O=c1[nH]c(-c2ccc(-c3nc4cc([N+](=O)[O-])ccc4c(=O)[nH]3)cc2)nc2cc([N+](=O)[O-])ccc12`, for which the GI50 in test [1], in test [2], in [3], in test [8], in test [6] and in test [9] was > 100 µM (inactive) in each case. Moreover, in test [7], the GI50 was > 100 µM (inactive).

Regarding `COC(=O)C1CCC(=O)N1/C(C)=N/NC(=O)Nc1ccc(Cl)c(Cl)c1` (stereo not drawn), the GI50 in test [1] is 32.2 µM (inactive); in test [2], > 100 µM (inactive); in [3], > 100 µM (inactive); in test [4], > 100 µM (inactive); in test [8], > 100 µM (inactive); in test [6] it was 28 µM (inactive). The GI50 in [7] was > 100 µM (inactive).

Consider `COc1ccc(/C=C(\NC(=O)c2ccccc2)c2nc3ccccc3[nH]2)cc1`, for which the GI50 in test [1] is 38.5 µM (inactive); in test [3] it was 29.5 µM (inactive); in test [4], 18.5 µM (inactive); in test [8], 33.6 µM (inactive); in [6] it was 27.4 µM (inactive); in [7], 35.6 µM (inactive).

Consider `N#C/C(=C\c1cccc(O)c1O)C(N)=O`, for which the GI50 in test [1] is 52.5 µM (inactive); in [2], 52 µM (inactive); in [3], 57.3 µM (inactive); in [4], 31.4 µM (inactive); in [8], 45.4 µM (inactive); in [6], 50.6 µM (inactive). The GI50 is 48.8 µM (inactive) in [9] and 54.8 µM (inactive) in [7].

For the compound `CC1(Sc2ccccc2)CN(Cc2ccccc2)C1=O` (stereo not drawn), the GI50 in test [1] was > 100 µM (inactive); in test [2], > 100 µM (inactive); in [3], > 100 µM (inactive); in [4], 39.5 µM (inactive); in test [8], > 100 µM (inactive); in test [5], > 100 µM (inactive). Moreover, the GI50 in test [9] and in [7] was > 100 µM (inactive) throughout.

For the compound `COc1cc2c(cc1OC)-c1c(cnn1C1OC(COC(C)=O)C(OC(C)=O)C(OC(C)=O)C1OC(C)=O)CC2` (stereo not drawn), the GI50 in test [1] is > 100 µM (inactive); in test [2] it was > 100 µM (inactive); in test [3], > 100 µM (inactive); in [8] it was > 100 µM (inactive); in [6] it was > 85.7 µM (inactive); in [7] it was > 89.1 µM (inactive).

`COC(=O)n1c(C[P+](c2ccccc2)(c2ccccc2)c2ccccc2)cc2ccccc21`: the GI50 in test [1] was 1.94 µM (inactive); in [2] it was 3.37 µM (inactive); in [3], 0.697 µM (active); in test [4], 0.746 µM (active); in test [8], 1.06 µM (active); in test [6], 0.372 µM (active). Also, the GI50 in test [7] is 0.452 µM (active).
